One data set addresses T1, human HA-PPARα (Homo sapiens, UniProt Q07869).
T1 construct: expressed in transfected cells; host or cells: HEK293
T1 sequence (Q07869 1-468): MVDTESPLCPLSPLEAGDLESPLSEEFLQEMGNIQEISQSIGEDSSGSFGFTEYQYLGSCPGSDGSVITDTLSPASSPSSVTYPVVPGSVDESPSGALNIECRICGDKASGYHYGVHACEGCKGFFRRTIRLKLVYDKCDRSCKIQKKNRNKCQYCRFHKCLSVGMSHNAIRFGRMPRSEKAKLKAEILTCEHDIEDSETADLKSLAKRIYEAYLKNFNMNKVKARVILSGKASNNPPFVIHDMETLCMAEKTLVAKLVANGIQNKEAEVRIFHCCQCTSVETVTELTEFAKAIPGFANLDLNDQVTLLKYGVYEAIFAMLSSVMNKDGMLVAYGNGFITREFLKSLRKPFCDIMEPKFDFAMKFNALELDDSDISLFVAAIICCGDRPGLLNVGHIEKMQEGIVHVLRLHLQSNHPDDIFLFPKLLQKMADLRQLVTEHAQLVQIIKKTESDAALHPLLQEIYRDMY
Kind of data set: PPRE luciferase activity assay in HEK293 cells transfected with HA-PPARα. To be noted: HEK293, PPRE-pk-Luc; 24 h (Supplementary Fig. S2). Format: cell-based. Also noted: transcriptional activity of PPARα: dose or concentration left out as unconfirmed. Here is the method: (§1) Figure 2 MD001 induces the expression of target genes through PPARα and PPARγ activation. HEK293 cells were transiently co-transfected with human HA-PPARα (A) and HA-PPARγ (B) expression vectors along with the reporter plasmid (PPRE-pk-Luc) or control reporter plasmid (pk-Luc) with Renilla vector for 24 h. Cells were treated with MD001 (10 μM), rosiglitazone (rosi) (10 μM) or WY14643 (WY) (10 μM) for 24 h. Luciferase activity was normalised to Renilla luciferase activity as described in the Methods section. **, vs. vehicle. (C) HepG2 cells were treated with MD001 (10 μM) for 24 h, and total RNA was isolated and synthesised into cDNA. Relative expression was quantitated using qRT-PCR. **, vs. vehicle. (D,E) HepG2 cells were transfected with control siRNA, PPARα siRNA (D), or PPARγ siRNA (E) for 48 h and treated with vehicle, WY14643 (10 μM), rosiglitazone (10 μM) or MD001 (10 μM) for 24 h. Subsequently, cells were harvested for total RNA isolation. Relative expression of target genes was quantitated using qRT-PCR. ^#, vs. control siRNA; ^‡, vs. control siRNA/vehicle; ^§, vs. control siRNA/WY; * and **, vs. control siRNA/MD001. Data represent the mean ± SD of three independent experiments. *P < 0.05, **P < 0.01, ^#P < 0.01, ^‡P < 0.01, and ^§P < 0.01.
(§2) For transient transfection, cells were transfected with plasmid DNA constructs by polyethylenimine (PEI, Polysciences, Inc., Warrington, PA, USA) according to the manufacturer’s instructions. Transcription activity assays of PPARα and PPARγ in HEK293 cells were performed by co-transfection of HA-PPARα, HA-PPARγ, and peroxisome proliferator-response element (PPRE) reporter plasmid (PPRE-pk-Luc) or control reporter plasmid (pk-Luc) with Renilla vector for 24 h. […] Luciferase activity was measured with the Dual-Luciferase Reporter Assay System (Promega, Madison, WI, USA) and quantified using GloMax (Promega, USA) according to the manufacturer’s protocol. […]
(§3) Luciferase activity was measured as described in the Methods section. […]

A further data set concerns the target T2, human HA-PPARγ (Homo sapiens, UniProt P37231).
T2 construct: expressed in transfected cells; host or cells: HEK293
T2 sequence (P37231 1-505): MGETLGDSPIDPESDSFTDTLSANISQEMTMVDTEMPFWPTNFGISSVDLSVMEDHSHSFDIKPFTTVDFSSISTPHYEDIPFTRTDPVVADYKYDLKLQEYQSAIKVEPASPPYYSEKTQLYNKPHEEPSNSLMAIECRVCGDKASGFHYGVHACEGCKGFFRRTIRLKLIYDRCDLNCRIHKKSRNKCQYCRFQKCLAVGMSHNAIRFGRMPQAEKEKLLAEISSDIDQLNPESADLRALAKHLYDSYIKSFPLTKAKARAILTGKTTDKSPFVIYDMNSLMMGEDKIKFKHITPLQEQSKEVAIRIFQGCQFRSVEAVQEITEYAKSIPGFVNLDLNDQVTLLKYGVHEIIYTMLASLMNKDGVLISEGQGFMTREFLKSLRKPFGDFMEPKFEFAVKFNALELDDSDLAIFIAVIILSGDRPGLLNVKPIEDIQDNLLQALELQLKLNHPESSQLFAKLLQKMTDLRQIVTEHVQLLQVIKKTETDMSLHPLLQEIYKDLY
Kind of data set: PPRE luciferase activity assay in HEK293 cells transfected with HA-PPARγ. Format: cell-based. Also noted: transcriptional activity of PPARγ: dose or concentration left out as unconfirmed. To be noted: HEK293, PPRE-pk-Luc; 24 h (Supplementary Fig. S2). Here is the method: as §1, §2, §3

Data set [1] relates to db/db mice. The settings on record: mouse, in vivo; for H&E staining of skeletal muscle: 20 mg/kg.
Experimental: (§4) (A) Changes in blood glucose levels was monitored in db/db mice administered once a day with vehicle, WY14643 (WY, 20 mg/kg), rosiglitazone (rosi, 20 mg/kg), or MD001 (n = 5–6 per group) as indicated. […] (D–M) The change in various blood metabolites was examined in db/db mice administered once a day with vehicle, WY14643 (WY), rosiglitazone (rosi), or MD001 (n = 5–6 per group). *, **, and ^#, vs. vehicle; ^†, vs. vehicle, MD001(5 mg/kg), and MD001(20 mg/kg). The data represent the mean ± S.D. *P < 0.05, **P < 0.01, ^#P < 0.001, and ^†P < 0.01.
(§5) Six-week-old C57BLKS/J-Lepr^db/Lepr^db or wild type C57BL/6J male mice were purchased from Orient Bio, Inc. (Seongnam, Korea) and acclimatised for one week. Mice were randomly grouped and orally administered with vehicle, WY14643 (20 mg/kg), rosiglitazone (20 mg/kg), or MD001 (5 mg/kg or 20 mg/kg) once a day for two months. […] Blood glucose levels were measured at the indicated time point using an OneTouch Ultra Blood Glucose Monitoring System (LifeScan, Inc., Milpitas, CA, USA).
(§6) Livers and blood samples were collected from mice in each group.
(§7) Tissues specimens including liver, perigonadal adipose tissue, skeletal muscle, spleen, kidney, and heart, were collected from mice in each group, fixed in 10% formalin, and embedded into paraffin. Tissue sections (5 μm) were stained with haematoxylin and eosin (H&E).
Data set [2] has as its system db/db mice. Kind of data set: Oral once-daily administration to diabetic db/db mice. The settings on record: db/db mice; for number of large fat cells (>150 μm in diameter) / number of small fat cells (<100 μm in diameter): adipose tissue H&E; for blood glucose levels: MD001 5 or 20 mg/kg, WY14643 20 mg/kg, rosiglitazone 20 mg/kg; for diameter of the glomerular capsule: 20 mg/kg once a day for 60 days.
Experimental: as §4, §5, §6, §7

The next data set has as its system wild type C57BL/6J mice. Briefly: Oral once-daily administration to wild type C57BL/6J mice. Format: in vivo, mouse. To be noted: wild type C57BL/6J mice. Here is the method: Supplementary Figure S6. MD001 has no influence on food intake of mice. (A) Wild type C57/BL6 mice were orally administered with vehicle, rosiglitazone (20 mg/kg), or MD001 (20 mg/kg) once a day for 60 days. The change in their body weight was evaluated and presented as gain of body weight per group (n = 5 - 6 in each group). (B) The 3-day food intake in wild type C57/BL6 mice or db/db mice during the administration of the indicated drug was measured three times (n = 5 - 6 in each group). The data represent the mean ± SD.
C57/BL6 mice. (A-H) Wild type C57/BL6 mice were administered with vehicle, rosiglitazone (20 mg/kg), or MD001 (20 mg/kg) (n = 5 in each group) for 60 days, and their blood metabolites were measured. (B) Blood glucose level was examined during the administration of the […]

As a reminder, the melting point is the temperature of the solid-liquid transition. As to `Cc1c(O)cc2oc(=O)c(C(=O)/C=C/c3ccccc3)c(-c3ccccc3)c2c1O` [MD002], the melting point was 274 to 278 °C. Moreover, the “transcriptional activity of PPARα” value on human HA-PPARα is “failed to enhance”. In addition, the “transcriptional activity of PPARγ” value at human HA-PPARγ is “failed to enhance”.
For the compound `Cc1cccc(Nc2cc(Cl)nc(SCC(=O)O)n2)c1C` [WY14643, reference compound], in the data set on db/db mice [1], the food ingestion result is “without changes in food ingestion” and the “H&E staining of skeletal muscle” value is “no differences”. Moreover, in the data set with db/db mice [2], the “number of large fat cells (>150 μm in diameter)” value is “significantly reduced”, the “number of small fat cells (<100 μm in diameter)” value was “significantly increased” and the “diameter of the glomerular capsule” value is recorded as “significantly reduced”. Also, in the data set on db/db mice [2] (oral once a day), the “blood FFA” value is reported as “significantly decreased”, the “blood TG” value is listed as “significantly decreased” and the blood glucose levels entry was “significantly decreased”. In addition, the body weight gain result in the data set with wild type C57BL/6J mice (once a day for 60 days) was “no induction of body weight gain”.
Turning to `CN(CCOc1ccc(CC2SC(=O)NC2=O)cc1)c1ccccn1` (stereo not drawn) [rosiglitazone, reference compound], the “H&E staining of skeletal muscle” value in the data set with db/db mice [1] is listed as “no differences”. Moreover, in the data set on db/db mice [2], the “number of large fat cells (>150 μm in diameter)” value is “significantly reduced”, the “number of small fat cells (<100 μm in diameter)” value is recorded as “significantly increased” and the “diameter of the glomerular capsule” value is given as “significantly reduced”. Besides, in the data set on db/db mice [2] (oral once a day), the “blood FFA” value was “significantly decreased”, the “blood TG” value was “significantly decreased”, the “blood alanine aminotransferase (ALT) levels” value is listed as “significantly increased” and the “blood aspartate aminotransferase (AST) levels” value is on record as “significantly increased”. In the data set with db/db mice [2] (oral once a day), the blood glucose levels result is “significantly decreased”. In addition, in the data set with db/db mice [2] (20 mg/kg), the “hepatic TG” value is recorded as “failed to reduce” and the “hepatic steatosis (H&E staining of liver)” value is on record as “exacerbated hepatic steatosis”. In addition, the “H&E staining of adipose tissue, skeletal muscle, and liver” value in the data set on wild type C57BL/6J mice (20 mg/kg once a day for 60 days) is on record as “no differences”.
